Measurements as given in patent publication US20240108740A1, “THERAPEUTIC COMPOSITIONS INCLUDING SPN10 AND USES THEREOF” (Stealth BioTherapeutics Inc., priority 2022, published 2024).
Residues, ends and D or L forms follow the SMILES beside them.

Key:
[1] = Example 17: linoleic acid peroxidation induced by ABAP; type: biochemical
Procedure: Linoleic acid peroxidation will be induced using the water-soluble initiator 2,2′-azobis(2-amidinopropane) (ABAP), and lipid peroxidation will be detected by the formation of conjugated dienes, monitored spectrophotometrically at 236 nm (E. Longoni, W. A. Pryor, P. Marchiafava, Biochem. Biophys. Res. Commun. 233, 778-780 (1997)).
5 mL of 0.5 M ABAP and varying concentrations of peptide conjugates; aromatic-cationic peptides (an equivalent molar dose of aromatic-cationic peptide based on the concentration of the aromatic-cationic peptide administered in the peptide conjugate treatment group); SPN10(s) (an equivalent molar dose of SPN10 based on the concentration of SPN10 administered in the peptide conjugate treatment group); or SPN10(s) in combination with aromatic-cationic peptides (e.g., an equivalent molar dose of SPN10 based on the concentration of SPN10 administered in the peptide conjugate treatment group and an equivalent molar dose of aromatic-cationic peptide based on the concentration of aromatic-cationic peptide administered in the peptide conjugate treatment group) will be incubated in 2.4 mL linoleic acid suspension until autoxidation rate becomes constant.

normal, mobile mice = assay: Skeletal muscle size and mitochondrial function in normal, mobile mice; type: in vivo, mouse
Excerpt: 1. Normal, mobile mice: Normal, mobile mice will be randomly divided into […], A-E, with 8 mice per group. Group A mice will receive an injection of saline vehicle; Group B mice will receive an i.p. injection of the peptide conjugate; Group C mice will receive an i.p. injection of aromatic-cationic peptide; Group D mice will receive an i.p. injection of SPN10; Group E mice will receive an i.p. injection of SPN10+aromatic-cationic peptide.
Preparation of permeabilized muscle fibers. Permeabilized muscle fibers will be prepared as previously described. Korshunov, et al., FEBS Lett 416:15-18, 1997; Tonkonogi, et al., Pfliigers Arch 446:261-269, 2003. Briefly, the muscle will be trimmed of connective tissue and cut down to fiber bundles (4-8 mg wet wt). […]
Mitochondrial respiration in permeabilized fibers. Respiration will be measured polarographically in a respiration chamber maintained at 37° C. […] Flux through complex I will be measured using 5 mM pyruvate and 2 mM malate. […] Basal respiration (state 4) will be determined in the presence of 10 µg/mL oligomycin to inhibit ATP synthesis. The respiratory control ratio (RCR) will be calculated by dividing state 3 by state 4 respiration.

## N=C(N)NCCC[C@H](NC(=O)[C@@H](N)Cc1c[nH]c2ccccc12)C(=O)N[C@@H](Cc1c[nH]c2ccccc12)C(=O)N[C@@H](CCCCN)C(N)=O [SPN10, H-L-Trp-L-Arg-L-Trp-L-Lys-NH2] (H-WRWK-NH2)
[1]
  peroxidation of linoleic acid: dose-dependently inhibit the peroxidation of linoleic acid
normal, mobile mice; mobile mice
  normal soleus muscle weight, RCR, mitochondrial state 3 and state 4 respiration: no effect
normal, mobile mice; mouse, in vivo
  normal skeletal muscle size or mitochondrial function: no effect
